Reference: US11524960B2, “Heterobicyclic inhibitors of MAT2A and methods of use for treating cancer” (AGIOS PHARMACEUTICALS, INC., priority 2018, dated 2022)

Target: T1, MAT2A homodimer (Homo sapiens, UniProt P31153)
T1 construct: inferred from Ni sepharose purification and imidazole elution; made in house; host or cells: Sf9 insect cells, recombinant baculovirus (Bac to Bac, pFASTBAC1)
Assay: Biochemical assay: inhibition of MAT2A (phosphate release, PiColorLock Gold)
Conditions: MAT2A IC50 score; read-out: Enzyme Inhibition (Example 275)
Procedure: Mat2A protein was expressed by recombinant baculovirus in SF9 infected cells using the Bac to Bac system cloned into the pFASTBAC1 vector (Invitrogen, Carlsbad, Calif.). Recombinant MAT2A was isolated from the cell lysate of 150 g of infected cells using HP Ni sepharose column chromatography. Recombinant MAT2A homodimer was eluted with 250 and 500 mM imidazole, and fractions containing MAT2A were identified by sodium dodecyl sulfate polyacrylamide gel electrophoresis and pooled.
For determination of the inhibitory potency of compounds against the MAT2A homodimer, protein was diluted to […] in assay buffer (50 mM Tris, pH 8.0, 50 mM KCl, 15 mM MgCl2, 0.3 mM EDTA, 0.005% [w/v] bovine serum albumin [BSA]). Test compound was prepared in 100% dimethyl sulfoxide (DMSO) at 50× the desired final concentration. […] of compound dilution was added to 40 μL of enzyme dilution and the mixture was allowed to equilibrate for 60 minutes at 25° C. The enzymatic assay was initiated by the addition of 10 μL of substrate mix (500 μM ATP, pH 7.0, 400 μM L-methionine in 1× assay buffer), and the mixture was incubated for a further 60 minutes at 25° C. The reaction was halted and the liberated phosphate released by the enzyme in stoichiometric amounts by the production of S-adenosyl methionine (SAM) was measured using the PiColorLock Gold kit (Innova Biosciences, UK). Absolute product amounts were determined by comparison to a standard curve of potassium phosphate buffer, pH 8.0.

T1 sequence (P31153 whole entry): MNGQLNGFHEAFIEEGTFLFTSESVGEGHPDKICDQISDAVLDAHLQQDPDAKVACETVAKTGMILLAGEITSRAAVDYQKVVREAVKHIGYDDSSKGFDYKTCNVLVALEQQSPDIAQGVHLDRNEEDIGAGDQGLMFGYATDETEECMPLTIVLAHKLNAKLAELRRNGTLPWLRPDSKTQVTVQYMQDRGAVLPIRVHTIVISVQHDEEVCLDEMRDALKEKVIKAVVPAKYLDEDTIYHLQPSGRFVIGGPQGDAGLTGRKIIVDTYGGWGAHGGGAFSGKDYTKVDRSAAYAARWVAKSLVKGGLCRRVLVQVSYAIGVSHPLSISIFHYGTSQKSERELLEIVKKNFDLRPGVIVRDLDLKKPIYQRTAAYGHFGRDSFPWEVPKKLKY

SMILES | IC50 [nM]
COc1ccc(-c2c(=O)n(-c3ccc(=O)n(C)c3)cc3cnc(NCC(F)(F)F)nc23)cc1 [Example 194, 8-(4-methoxyphenyl)-6-(1-methyl-6-oxo-1,6-dihydropyridin-3-yl)-2-((2,2,2-trifluoroethyl)amino)pyrido[4,3-d]pyrimidin-7(6H)-one] | 100 to 1000
COc1ccc(-n2cc3cnc(NCC(F)(F)F)nc3c(-c3ccc(OC(F)(F)F)cc3)c2=O)cc1 [Example 196, 6-(4-methoxyphenyl)-2-((2,2,2-trifluoroethyl)amino)-8-(4-(trifluoromethoxy)phenyl)pyrido[4,3-d]pyrimidin-7(6H)-one] | < 100
COc1ccc(-n2cc3cnc(NCC(F)(F)F)nc3c(-c3ccc(C(F)(F)F)cc3)c2=O)cc1 [Example 197, 6-(4-methoxyphenyl)-2-((2,2,2-trifluoroethyl)amino)-8-(4-(trifluoromethyl)phenyl)pyrido[4,3-d]pyrimidin-7(6H)-one] | 100 to 1000
COc1ccc(-n2cc3cnc(NCC(F)(F)F)nc3c(-c3ccc(C4CCC4)cc3)c2=O)cc1 [Example 199, 8-(4-cyclobutylphenyl)-6-(4-methoxyphenyl)-2-((2,2,2-trifluoroethyl)amino)pyrido[4,3-d]pyrimidin-7(6H)-one] | 1000 to 10000
O=c1c(-c2ccc(OCC(F)F)cc2)c2nc(NCC(F)(F)F)ncc2cn1-c1ccc2ncccc2c1 [Example 201, 8-(4-(2,2-difluoroethoxy)phenyl)-6-(quinolin-6-yl)-2-((2,2,2-trifluoroethyl)amino)pyrido[4,3-d]pyrimidin-7(6H)-one] | 100 to 1000
COc1ccc(-n2cc3cnc(NCC(F)(F)F)nc3c(-c3ccc(N4CCC4)cc3)c2=O)cc1 [Example 204, 8-(4-(azetidin-1-yl)phenyl)-6-(4-methoxyphenyl)-2-((2,2,2-trifluoroethyl)amino)pyrido[4,3-d]pyrimidin-7(6H)-one] | 100 to 1000
COc1ccc(-c2c(=O)n(-c3cnoc3)cc3cnc(NCC(F)(F)F)nc23)cc1 [Example 207, 6-(isoxazol-4-yl)-8-(4-methoxyphenyl)-2-((2,2,2-trifluoroethyl)amino)pyrido[4,3-d]pyrimidin-7(6H)-one] | 100 to 1000
COc1ccc(-c2c(=O)n(-c3cn[nH]c3)cc3cnc(NCC(F)(F)F)nc23)cc1 [Example 208, 8-(4-methoxyphenyl)-6-(H-pyrazol-4-yl)-2-((2,2,2-trifluoroethyl)amino)pyrido[4,3-d]pyrimidin-7(6H)-one] | < 100
Cn1cc2cc(-n3cc4ccc(NCC(F)(F)F)nc4c(-c4ccc(CC(F)F)cc4)c3=O)ccc2n1 [Example 214, 8-(4-(2,2-difluoroethyl)phenyl)-6-(2-methyl-2H-indazol-5-yl)-2-((2,2,2-trifluoroethyl)amino)-1,6-naphthyridin-7(6H)-one] | < 100
COc1ccc(-n2cc3ccc(NCC(F)(F)F)nc3c(-c3ccc(Cl)cc3)c2=O)cc1 [Example 238, 8-(4-chlorophenyl)-6-(4-methoxyphenyl)-2-(2,2,2-trifluoroethylamino)-1,6-naphthyridin-7(6H)-one] | < 100
COc1ccc(-n2cc3cnc(OCC(F)(F)F)nc3c(-c3ccc(Br)cc3)c2=O)cc1 [Example 261, 8-(4-bromophenyl)-6-(4-methoxyphenyl)-2-(2,2,2-trifluoroethoxy)pyrido[4,3-d]pyrimidin-7(6H)-one] | < 100
Cn1cnc2ccc(-n3cc4cnc(OCC(F)(F)F)nc4c(-c4ccc(OC(F)F)cc4)c3=O)cc21 [Example 263, 8-(4-(difluoromethoxy)phenyl)-6-(1-methyl-1H-benzo[d]imidazol-6-yl)-2-(2,2,2-trifluoroethoxy)pyrido[4,3-d]pyrimidin-7(6H)-one] | < 100
O=c1c(-c2ccc(OC(F)F)cc2)c2nc(OCC(F)(F)F)ncc2cn1-c1ccc2nc[nH]c2c1 [Example 266, 6-(H-benzo[d]imidazol-6-yl)-8-(4-(difluoromethoxy)phenyl)-2-(2,2,2-trifluoroethoxy)pyrido[4,3-d]pyrimidin-7(6H)-one] | 100 to 1000
O=c1c(-c2ccc(C3CC3)cc2)c2nc(OCC(F)(F)F)ncc2cn1-c1ccc2ncccc2c1 [Example 267, 8-(4-cyclopropylphenyl)-6-(quinolin-6-yl)-2-(2,2,2-trifluoroethoxy)pyrido[4,3-d]pyrimidin-7(6H)-one] | < 100
CCOc1ncc2cn(-c3ccc4ncccc4c3)c(=O)c(-c3ccc(OC(F)F)cc3)c2n1 [Example 271, 8-(4-(difluoromethoxy)phenyl)-2-ethoxy-6-(quinolin-6-yl)pyrido[4,3-d]pyrimidin-7(6H)-one] | < 100
O=c1c(-c2ccc(OC(F)F)cc2)c2nc(OC3CC3)ncc2cn1-c1ccc2ncccc2c1 [Example 273, 2-cyclopropoxy-8-(4-(difluoromethoxy)phenyl)-6-(quinolin-6-yl)pyrido[4,3-d]pyrimidin-7(6H)-one] | < 100
O=c1c(-c2ccc(OC(F)F)cc2)c2nc(SCC(F)(F)F)ncc2cn1-c1ccc2ncccc2c1 [Example 274, 8-(4-(difluoromethoxy)phenyl)-6-(quinolin-6-yl)-2-(2,2,2-trifluoroethylthio)pyrido[4,3-d]pyrimidin-7(6H)-one] | < 100
